According to the supplement of paper PMC10307832:

Tests used:
Assay in all cases: relative viability (nuclei count vs DMSO), 5 days (fraction); higher = more cells survive
Linifanib + Palbociclib = compound: Cc1ccc(F)c(NC(=O)Nc2ccc(-c3cccc4[nH]nc(N)c34)cc2)c1 [Linifanib] + CC(=O)c1c(C)c2cnc(Nc3ccc(N4CCNCC4)cn3)nc2n(C2CCCC2)c1=O [Palbociclib] (partner 0.5 µM)
How it was run: (§1)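 Dosing by pin tool came one day after lung cancer cell lines were seeded in 1536-well plates, using either one drug or a fixed anchor-drug dose plus five library-drug doses (not always all listed) in √10 steps. After 5 days, nuclei were counted on 4× images. Relative viability is treated-well nuclei count divided by vehicle-well nuclei count, and values are medians of duplicate plates.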

Linifanib + Navitoclax = compound: Cc1ccc(F)c(NC(=O)Nc2ccc(-c3cccc4[nH]nc(N)c34)cc2)c1 [Linifanib] + CC1(C)CCC(c2ccc(Cl)cc2)=C(CN2CCN(c3ccc(C(=O)NS(=O)(=O)c4ccc(N[C@H](CCN5CCOCC5)CSc5ccccc5)c(S(=O)(=O)C(F)(F)F)c4)cc3)CC2)C1 [Navitoclax] (partner 0.5 µM)
How it was run: as §1

Linifanib + Foretinib = compound: Cc1ccc(F)c(NC(=O)Nc2ccc(-c3cccc4[nH]nc(N)c34)cc2)c1 [Linifanib] + COc1cc2c(Oc3ccc(NC(=O)C4(C(=O)Nc5ccc(F)cc5)CC4)cc3F)ccnc2cc1OCCCN1CCOCC1 [Foretinib] (partner 0.25 µM)
How it was run: as §1

Linifanib + Pictilisib = compound: Cc1ccc(F)c(NC(=O)Nc2ccc(-c3cccc4[nH]nc(N)c34)cc2)c1 [Linifanib] + CS(=O)(=O)N1CCN(Cc2cc3nc(-c4cccc5[nH]ncc45)nc(N4CCOCC4)c3s2)CC1 [Pictilisib] (partner 1 µM)
How it was run: as §1

Linifanib + Linsitinib = compound: Cc1ccc(F)c(NC(=O)Nc2ccc(-c3cccc4[nH]nc(N)c34)cc2)c1 [Linifanib] + C[C@]1(O)C[C@@H](c2nc(-c3ccc4ccc(-c5ccccc5)nc4c3)c3c(N)nccn32)C1 [Linsitinib] (partner 1 µM)
How it was run: as §1

Linifanib + Pemetrexed = compound: Cc1ccc(F)c(NC(=O)Nc2ccc(-c3cccc4[nH]nc(N)c34)cc2)c1 [Linifanib] + Nc1nc2[nH]cc(CCc3ccc(C(=O)N[C@@H](CCC(=O)O)C(=O)O)cc3)c2c(=O)[nH]1 [Pemetrexed] (partner 0.2 µM)
How it was run: as §1

Cell Line	relative viability (Linifanib + Palbociclib; first compound 0.03162 µM)	relative viability (Linifanib + Palbociclib; first compound 0.1 µM)	relative viability (Linifanib + Palbociclib; first compound 0.3162 µM)	relative viability (Linifanib + Navitoclax; first compound 0.03162 µM)	relative viability (Linifanib + Navitoclax; first compound 0.1 µM)	relative viability (Linifanib + Navitoclax; first compound 0.3162 µM)	relative viability (Linifanib + Foretinib; first compound 0.03162 µM)	relative viability (Linifanib + Foretinib; first compound 0.1 µM)	relative viability (Linifanib + Foretinib; first compound 0.3162 µM)	relative viability (Linifanib + Pictilisib; first compound 0.03162 µM)	relative viability (Linifanib + Pictilisib; first compound 0.1 µM)	relative viability (Linifanib + Pictilisib; first compound 0.3162 µM)	relative viability (Linifanib + Linsitinib; first compound 0.03162 µM)	relative viability (Linifanib + Linsitinib; first compound 0.1 µM)	relative viability (Linifanib + Linsitinib; first compound 0.3162 µM)	relative viability (Linifanib + Pemetrexed; first compound 0.03162 µM)	relative viability (Linifanib + Pemetrexed; first compound 0.1 µM)	relative viability (Linifanib + Pemetrexed; first compound 0.3162 µM)
NCI-H23	0.486	0.57	0.487	0.98	0.99	0.61	1.28	0.964	1.15	0.542	0.524	0.523	0.536	0.798	0.475	0.66	0.882	0.761
NCI-H322M	0.488	0.487	0.441	1.25	1.14	1.17	0.939	1.06	1.02	0.513	0.491	0.557	1	0.865	0.838	0.598	0.589	0.65
NCI-H441	0.222	0.24	0.228	0.705	0.637	0.591	1.08	0.945	1.27	0.493	0.519	0.479	0.528	0.731	0.547	0.274	0.291	0.222
NCI-H460	0.133	0.187	0.152	1.1	1.45	1	0.963	1.01	0.95	0.397	0.448	0.317	0.714	1.05	0.773	0.0619	0.0626	0.0566
NCI-H520	0.22	0.216	0.238	1.02	1.1	1.05	0.741	1.01	0.708	0.29	0.304	0.315	1.07	1	0.811	0.629	0.696	0.635
NCI-H647	0.342	0.506	0.484	1.23	1.03	1.01	1.03	1.23	1.12	0.313	0.512	0.417	1.13	1.06	1.07	0.148	0.153	0.203
NCI-H838	0.22	0.223	0.23	1.19	1.15	1.16	1.05	1.08	1.02	0.464	0.466	0.458	0.973	1.14	0.901	0.225	0.27	0.244
NCI-H1355	0.398	0.411	0.389	0.891	0.953	0.963	0.994	1.04	0.941	0.463	0.401	0.433	0.843	0.876	0.852	1.07	1.13	1.08
